The test system of one data set is H3K4 trimethylation. Put plainly: H3K4 trimethylation (H3K4me3) reporter allele, GFP fluorescence by FACS. It is filed as cell-based. Conditions: FIG. 18F. The source says:
An H3K4 trimethylation reporter was also created (FIG. 5B). This reporter is based on the H3 tail on one end and the TBP associated factor III (TAFIII) […] on the other end; the TAFIII […] only identifies and binds to trimethylated K4 on H3. When the H3K4 site gets trimethylated, the TAFIII […] can bind to the modified H3 tail and bring the two parts of the separated GFP in close proximity. The activity of the epigenetic modification system can be quantified through fluorescence.
Epigenetic reporter alleles were synthesized (OriGene, Rockville, Md.) using published sequences for component elements (Baird et al. (1999) Proc. Natl. Acad. Sci. 96:11241-6; Souslova et al. (2007) BMC Biotechnol. 7:37). Single nucleotide mutations were created using the QuickChange Lightening kit (Agilent Technologies Inc, Santa Clara, Calif.). […] FACS data were analyzed using FlowJo (Tree Star Inc, Ashland, Oreg.). […]
Epigenetic reporter systems were created that monitor either H4 acetylation or H3K4 trimethylation machinery activity in an effort to determine whether there is an ongoing activity deficiency in cells from Kmt2d^+/βGeo mice (FIG. 18A). Both reporter alleles encode halves of green fluorescent protein separated by a flexible linker region (Baird et al. (1999) Proc. Natl. Acad. Sci. 96: 11241-6) with a histone tail and a histone reader at the N- and C-termini, respectively. […]
(In general: In flow cytometry, cells or beads pass a laser one at a time.)

The next data set has as its system Klf10. Put plainly: Real-time PCR of Kmt2d target gene Klf10 in spleen cells. It is filed as in vivo, mouse. Conditions: spleen cells of Kmt2d+/βGeo mice. The procedure: Real-time PCR was performed using Kmt2d-specific probes for exons 20 and 52 (Mm_02600438 and Mm_01717664, respectively) from TaqMan® Gene Expression Assays (Life Technologies, Carlsbad, Calif.). For a comparison of transfection efficiencies for indicator constructs in transient transfection studies, real-time PCR was performed using SYBR Green Real-Time PCR Master Mix (Life Technologies, Carlsbad, Calif.) and primers IND-F-([…]; SEQ ID NO: 5) and IND-R-([…]; SEQ ID NO: 6) that are specific for the H3K4 methylation indicator. For expression analysis for KMT2D target gene KLF10, real-time PCR was performed using Klf10-specific expression assay (Mm00449812_m1) from TaqMan® Gene Expression Assays (Life Technologies, Carlsbad, Calif.).
(Real-time PCR tracks product formation cycle by cycle.)

Entries after “also recorded” stand apart in the source; their conditions may differ.

`CC(C)[C@H](C(=O)Nc1ccc(C(=O)NO)cc1)c1ccccc1` [AR-42]: the cell numbers entry in the data set on H3K4 trimethylation (higher doses) was “decreased cell numbers at higher doses”. Besides, the “response of the H3K4me3 indicator” value with H3K4 trimethylation (increasing levels of drug) is “dose dependent response”. For the same molecule, the Klf10 expression entry in the data set with Klf10 is recorded as “normalization of expression of Klf10; also recorded: normalized”.

The values above are taken from patent US10246498B2, “Genetically encoded histone reporter allele constructs” (THE JOHNS HOPKINS UNIVERSITY, priority 2014, dated 2019).
